Data as given in ChEMBL document CHEMBL6096699, “Tröger's Base as a Potential Bridge to Type-I Photosensitizers: Mechanism and Antitumor Applications” (J Med Chem, 2025).
Active and inactive are the calls of the source. The calls are words filed in the database; no cut-off is given here.

What was measured:
[1] = system: A549; assay: Inhibition of cell migration in human A549 cells assessed as appearance of blurred cells at 0.25 uM preincubated for 12 hrs followed by LED light irradiation 1.8 mW cm/2 for 2 hrs and measured after 48 hrs by wound healing assay; format: functional, cell-based; details: time 62.0 hrs
[2] = system: A549; assay: Activation of ERK1/2 pathway in human A549 cells assessed as increase in ERK phosphorylation level at 2.5 to 5 uM by Western blot analysis; format: cell-based; details: filed as activator, dose 2.5-5 µM
[3] = Developmental toxicity in wild type AB zebrafish assessed as effect on morphological abnormalities at 1.57 to 50 uM incubated for 72 hrs under dark condition; parameters: species or system Danio rerio; details: in vivo, dose 1.57-50 µM
[4] = system: HepG2; assay: Phototoxicity against human HepG2 cells assessed as reduction in cell proliferation at 0.156 to 10 uM irradiated with LED light at 1.8 mWcm/2 for 2 hrs and measured after 24 hrs under normoxia condition by MTT assay; format: functional, cell-based; details: dose 0.156-10 µM, time 26.0 hrs
[5] = target: T1, c-Jun N-terminal kinase, JNK (Homo sapiens) (UniProt P45983+P53779+P45984); assay: Activation of JNK pathway in human A549 cells assessed as increase in JNK phosphorylation level at 2.5 to 5 uM by Western blot analysis; format: cell-based; details: filed as activator, dose 2.5-5 µM
[6] = system: A549; assay: Induction of apoptosis in human A549 cells assessed as upregulation of cleaved caspase-3 expression at 2.5 to 5 uM with irradiation of LED light at 1.8 mW cm/2 by Western blot analysis; format: functional, cell-based; details: dose 2.5-5 µM
[7] = system: Mitochondrial membrane; assay: Induction of mitochondrial membrane potential loss in human A549 cells assessed as decrease in red fluorescence of JC-1 aggregates at 0.4 to 1.2 uM incubated for 24 hrs with irradiation of LED light at 1.8 mW cm/2 by light microscopy analysis; format: cell membranes; details: dose 0.4-1.2 µM
[8] = system: MDA-MB-231; assay: Phototoxicity against human MDA-MB-231 cells assessed as reduction in cell proliferation at 0.156 to 10 uM irradiated with LED light at 1.8 mWcm/2 for 2 hrs and measured after 24 hrs under normoxia condition by MTT assay; format: functional, cell-based; details: dose 0.156-10 µM, time 26.0 hrs
[9] = system: A549; assay: Inhibition of cell migration in human A549 cells assessed as appearance of loose cells at 0.25 uM preincubated for 12 hrs followed by LED light irradiation 1.8 mW cm/2 for 2 hrs and measured after 48 hrs by wound healing assay; format: functional, cell-based; details: time 62.0 hrs
[10] = target: Signal transducer and activator of transcription 3 (Homo sapiens) (UniProt P40763); assay: Inhibition of STAT3 pathway in human A549 cells assessed as decrease in STAT3 phosphorylation level at 2.5 to 5 uM by Western blot analysis; format: cell-based; details: dose 2.5-5 µM
Signal transducer and activator of transcription 3 (Homo sapiens), sequence (P40763 whole entry): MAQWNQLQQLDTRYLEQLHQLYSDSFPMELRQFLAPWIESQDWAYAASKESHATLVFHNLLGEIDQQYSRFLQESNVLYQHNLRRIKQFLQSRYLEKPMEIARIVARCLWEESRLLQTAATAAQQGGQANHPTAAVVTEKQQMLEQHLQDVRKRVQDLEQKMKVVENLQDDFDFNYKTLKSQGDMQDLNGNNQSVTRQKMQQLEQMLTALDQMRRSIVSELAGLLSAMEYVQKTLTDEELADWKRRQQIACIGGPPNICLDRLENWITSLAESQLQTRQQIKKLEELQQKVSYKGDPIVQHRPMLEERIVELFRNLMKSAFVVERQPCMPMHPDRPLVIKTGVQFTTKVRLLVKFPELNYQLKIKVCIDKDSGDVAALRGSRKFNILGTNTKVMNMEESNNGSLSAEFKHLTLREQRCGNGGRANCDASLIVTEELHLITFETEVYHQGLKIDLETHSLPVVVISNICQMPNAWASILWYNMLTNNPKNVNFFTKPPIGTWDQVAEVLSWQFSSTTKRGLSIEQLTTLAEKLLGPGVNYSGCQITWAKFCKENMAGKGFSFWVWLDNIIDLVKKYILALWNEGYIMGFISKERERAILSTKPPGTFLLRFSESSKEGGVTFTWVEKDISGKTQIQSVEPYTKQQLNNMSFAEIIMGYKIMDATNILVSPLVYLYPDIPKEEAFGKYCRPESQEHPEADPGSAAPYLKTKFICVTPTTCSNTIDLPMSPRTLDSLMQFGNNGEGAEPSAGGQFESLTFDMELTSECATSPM

[11] = Developmental toxicity in wild type AB zebrafish assessed as effect on heart at 50 uM incubated for 72 hrs followed by LED light irradiation at 1.8 mW cm/2 relative to control; parameters: species or system Danio rerio; details: in vivo
[12] = Drug localization in mitochondria of human A549 cells assessed as colocalization by Mitotracker res staining based analysis; format: ADME
[13] = Induction of type-1 ROS generation in tetrahydrofuran assessed as fold increase in DHR123 fluorescence intensity at 0.5 uM followed by LED white light irradiation at 1.8 mWcm/2 for 300 sec by DCFH staining based analysis; format: functional
[14] = system: A549; assay: Antitumor activity in human A549 cells xenografted in Ab wild type Zebrafish embryos assessed as decrease in tumor growth by measuring fluorescence intensity at 2.9 to 5.8 ng preincubated for 12 hrs followed by irradiation of LED light of 1.8 mW cm/2 for 2 hrs and measured after 48 to 72 hrs; format: functional, cell-based; details: dose 2.9-5.8 ng, time 62-86 hrs
[15] = system: A549; assay: Induction of apoptosis in human A549 cells assessed as downregulation of caspase-3 expression at 2.5 to 5 uM with irradiation of LED light at 1.8 mW cm/2 by Western blot analysis; format: functional, cell-based; details: dose 2.5-5 µM
[16] = Developmental toxicity in wild type AB zebrafish assessed as effect on morphological abnormalities at 1.57 to 50 uM incubated for 72 hrs followed by LED light irradiation at 1.8 mW cm/2; parameters: species or system Danio rerio; details: in vivo, dose 1.57-50 µM
[17] = system: A549; assay: Inhibition of cell migration in human A549 cells assessed as appearance of blurred cells at 0.25 uM preincubated for 12 hrs followed by incubation under dark condition and measured after 48 hrs by wound healing assay; format: functional, cell-based; details: time 60.0 hrs
[18] = system: A549; assay: Activation of ERK1/2 pathway in human A549 cells assessed as effect on ERK protein expression at 2.5 to 5 uM by Western blot analysis; format: cell-based; details: filed as activator, dose 2.5-5 µM
[19] = system: A549; assay: Inhibition of cell migration in human A549 cells at 0.25 uM preincubated for 12 hrs followed by incubation under dark condition and measured after 48 hrs by wound healing assay; format: functional, cell-based; details: time 60.0 hrs
[20] = system: A549; assay: Inhibition of cell migration in human A549 cells at 0.25 uM preincubated for 12 hrs followed by LED light irradiation 1.8 mW cm/2 for 2 hrs and measured after 48 hrs by wound healing assay; format: functional, cell-based; details: time 62.0 hrs
[21] = system: A549; assay: Inhibition of cell migration in human A549 cells assessed as appearance of loose cells at 0.25 uM preincubated for 12 hrs followed by incubation under dark condition and measured after 48 hrs by wound healing assay; format: functional, cell-based; details: time 60.0 hrs
[22] = Developmental toxicity in wild type AB zebrafish assessed as effect on heart at 50 uM incubated for 72 hrs under dark condition; parameters: species or system Danio rerio; details: in vivo
[23] = target: Signal transducer and activator of transcription 3 (Homo sapiens) (UniProt P40763); assay: Inhibition of STAT3 pathway in human A549 cells assessed as decrease in STAT3 protein expression at 2.5 to 5 uM by Western blot analysis; format: cell-based; details: dose 2.5-5 µM
[24] = Dark toxicity in human HBE cells assessed as cell viability incubated for 24 hrs in dark by MTT assay; format: cell-based
[25] = target: T1, c-Jun N-terminal kinase, JNK (Homo sapiens); assay: Activation of JNK pathway in human A549 cells assessed as effect on JNK protein expression at 2.5 to 5 uM by Western blot analysis; format: cell-based; details: filed as activator, dose 2.5-5 µM
[26] = Phototoxicity against human A549 cells assessed as reduction in cell proliferation irradiated with LED light at 1.8 mWcm/2 for 2 hrs and measured after 24 hrs under normoxia condition by MTT assay; format: functional, cell-based; details: A549, light or radiation study
[27] = Developmental toxicity in wild type AB zebrafish assessed as hatching rate at 50 uM incubated for 72 hrs under dark condition; parameters: species or system Danio rerio; details: in vivo
[28] = system: MCF7; assay: Phototoxicity against human MCF7 cells assessed as reduction in cell proliferation at 0.156 to 10 uM irradiated with LED light at 1.8 mWcm/2 for 2 hrs and measured after 24 hrs under normoxia condition by MTT assay; format: functional, cell-based; details: dose 0.156-10 µM, time 26.0 hrs
[29] = Induction of type-2 ROS generation in methanol assessed as generation of single oxygen at 0.5 uM followed by Xe lamp irradiation for 5 mins by DCFH staining based analysis; format: functional
[30] = system: A549; assay: Induction of intracellular ROS generation in human A549 cells by measuring red fluorescence at 0.4 to 1.2 uM incubated for 24 hrs in presence of LED light irradiation at 1.8 mW cm/2 by DHE based fluorescence microscopy analysis; format: functional, cell-based; details: dose 0.4-1.2 µM
[31] = Drug localization in ER of human A549 cells assessed as colocalization by ER-Tracker green staining based analysis; format: ADME, subcellular, Endoplasmic reticulum
[32] = system: A549; assay: Induction of apoptosis in human A549 cells assessed as upregulation of cleaved Bax expression at 2.5 to 5 uM with irradiation of LED light at 1.8 mW cm/2 by Western blot analysis; format: functional, cell-based; details: dose 2.5-5 µM

In the case of `CCN(CC)c1ccc2cc(C(=O)/C=C/c3ccc4c(c3)CN3CN4Cc4cc(Br)ccc43)c(=O)oc2c1`, the inhibition [1] is reported as “Active”, the Activity [2] is reported as “Active” and the Activity [3] is reported as “Non-toxic”. The Activity [4] was “Active”, the Activity [5] was “Active” and the Activity [6] was “Active”. For the same compound, the Activity [7] was “Active”, the Activity [8] was “Active” and the inhibition [9] was “Active”. The inhibition [10] was “Active”, the Activity [11] was “Non-toxic” and the Drug uptake [12] was “Active”. The fold change (FC) [13] was 25.6, the Activity [14] was “Active” and the Activity [15] was “Active”. For the same compound, the Activity [16] was “Non-toxic”, the inhibition [17] was “Active” and the Activity [18] was “Active; Compound Showed Little Change In Protein Expression”. For the same compound, the inhibition [19] was “Active”, the inhibition [20] was “Active” and the inhibition [21] was “Active”. The Activity [22] was “Non-toxic”, the inhibition [23] was “Active” and the Activity [24] was “Toxic”. For the same compound, the Activity [25] was “Active; Compound Showed Little Change In Protein Expression”, the IC50 [26] was 460 nM and the Activity [27] was 100%. The Activity [28] was “Active”, the Activity [29] was “Active” and the Activity [30] was “Active”. For the same compound, the Drug uptake [31] was “Active” and the Activity [32] was “Active”.
